Laboratory results from publication PMC9005681, “Use of AD Informer Set compounds to explore validity of novel targets in Alzheimer's disease pathology” (Alzheimer's & Dementia : Translational Research & Clinical …, 2022).

Experiments:
Experiment in all cases: PDSP GPCR panel primary binding assays at 10 μM
[1] = tested on: cloned human or rodent CNS receptors, channels, and transporters (PDSP panel); conditions: primary assay
In short: (§1)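 Competition binding with radiolabeled standard ligands, single 10 μM concentration, four replicates. Targets showing over 50% displacement were followed up with 11-point titrations in triplicate.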

[2] = target: T1, cloned human or rodent CNS receptors, channels, and transporters (PDSP panel) (Homo sapiens, UniProt P21917); conditions: Receptor D4, primary assay, 10 μM
T1 construct: expressed in transfected cells
T1 sequence (P21917 1-419): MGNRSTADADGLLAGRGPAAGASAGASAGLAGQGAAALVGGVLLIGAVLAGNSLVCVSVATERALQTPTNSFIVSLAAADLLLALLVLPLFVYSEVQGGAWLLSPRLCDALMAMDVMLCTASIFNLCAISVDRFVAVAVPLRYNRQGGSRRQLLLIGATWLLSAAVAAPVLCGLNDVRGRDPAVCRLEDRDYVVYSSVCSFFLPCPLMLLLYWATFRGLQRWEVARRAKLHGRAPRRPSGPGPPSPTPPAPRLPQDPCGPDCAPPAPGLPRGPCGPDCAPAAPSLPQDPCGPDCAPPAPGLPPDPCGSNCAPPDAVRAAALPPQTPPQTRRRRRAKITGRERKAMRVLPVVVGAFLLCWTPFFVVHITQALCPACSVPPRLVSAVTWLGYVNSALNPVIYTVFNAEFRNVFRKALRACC
In short: as §1

[3] = target: T2, cloned human or rodent CNS receptors, channels, and transporters (PDSP panel) (Homo sapiens, UniProt P08173); conditions: Receptor M4, primary assay, 10 μM
T2 construct: expressed in transfected cells
T2 sequence (P08173 1-479): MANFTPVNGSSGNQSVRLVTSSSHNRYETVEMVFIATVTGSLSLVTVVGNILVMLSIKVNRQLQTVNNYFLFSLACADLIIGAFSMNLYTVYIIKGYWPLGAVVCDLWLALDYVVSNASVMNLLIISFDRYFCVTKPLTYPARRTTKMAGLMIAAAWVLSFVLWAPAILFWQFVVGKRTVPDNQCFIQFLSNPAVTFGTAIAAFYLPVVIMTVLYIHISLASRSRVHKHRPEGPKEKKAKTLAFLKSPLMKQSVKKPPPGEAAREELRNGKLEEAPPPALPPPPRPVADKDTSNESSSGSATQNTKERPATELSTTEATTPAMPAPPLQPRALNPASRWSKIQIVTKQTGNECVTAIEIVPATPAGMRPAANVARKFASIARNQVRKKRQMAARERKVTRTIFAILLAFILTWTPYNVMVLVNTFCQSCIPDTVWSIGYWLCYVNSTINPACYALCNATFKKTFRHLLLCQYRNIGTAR
In short: as §1

[4] = target: T3, cloned human or rodent CNS receptors, channels, and transporters (PDSP panel) (Homo sapiens, UniProt P20309); conditions: Receptor M3, primary assay, 10 μM
T3 construct: expressed in transfected cells
T3 sequence (P20309 whole entry): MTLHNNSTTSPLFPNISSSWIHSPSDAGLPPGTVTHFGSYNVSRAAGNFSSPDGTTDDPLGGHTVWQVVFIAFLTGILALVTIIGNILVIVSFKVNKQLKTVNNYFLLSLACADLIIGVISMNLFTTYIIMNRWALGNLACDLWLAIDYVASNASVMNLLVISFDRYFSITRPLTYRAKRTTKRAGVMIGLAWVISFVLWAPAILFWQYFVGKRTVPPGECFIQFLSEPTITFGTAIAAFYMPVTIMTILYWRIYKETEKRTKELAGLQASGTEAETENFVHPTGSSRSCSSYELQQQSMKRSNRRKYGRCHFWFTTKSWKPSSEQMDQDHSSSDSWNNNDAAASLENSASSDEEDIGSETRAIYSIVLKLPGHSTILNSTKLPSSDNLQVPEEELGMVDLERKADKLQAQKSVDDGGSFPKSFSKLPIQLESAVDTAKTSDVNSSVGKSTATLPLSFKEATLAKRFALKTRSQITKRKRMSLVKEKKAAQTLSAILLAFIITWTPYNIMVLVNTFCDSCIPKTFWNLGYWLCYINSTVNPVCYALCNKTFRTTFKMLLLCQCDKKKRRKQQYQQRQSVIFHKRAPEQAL
In short: as §1

[5] = target: T4, cloned human or rodent CNS receptors, channels, and transporters (PDSP panel) (Homo sapiens, UniProt P08908); conditions: Receptor 5-HT1A, primary assay, 10 μM
T4 construct: expressed in transfected cells
T4 sequence (P08908 1-422): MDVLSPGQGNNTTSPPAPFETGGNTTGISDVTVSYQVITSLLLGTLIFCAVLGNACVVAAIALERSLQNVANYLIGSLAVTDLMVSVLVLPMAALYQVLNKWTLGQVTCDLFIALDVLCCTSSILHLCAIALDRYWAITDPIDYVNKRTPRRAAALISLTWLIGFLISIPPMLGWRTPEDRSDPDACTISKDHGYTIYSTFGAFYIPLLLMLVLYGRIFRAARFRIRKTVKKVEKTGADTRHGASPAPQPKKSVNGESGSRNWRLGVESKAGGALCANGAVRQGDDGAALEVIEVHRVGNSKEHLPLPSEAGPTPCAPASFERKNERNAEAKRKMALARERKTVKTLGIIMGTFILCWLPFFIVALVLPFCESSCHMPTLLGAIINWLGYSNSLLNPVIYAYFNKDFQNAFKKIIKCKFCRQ
In short: as §1

[6] = target: T5, cloned human or rodent CNS receptors, channels, and transporters (PDSP panel) (Homo sapiens, UniProt P50406); conditions: Receptor 5-HT6, primary assay, 10 μM
T5 construct: expressed in transfected cells
T5 sequence (P50406 whole entry): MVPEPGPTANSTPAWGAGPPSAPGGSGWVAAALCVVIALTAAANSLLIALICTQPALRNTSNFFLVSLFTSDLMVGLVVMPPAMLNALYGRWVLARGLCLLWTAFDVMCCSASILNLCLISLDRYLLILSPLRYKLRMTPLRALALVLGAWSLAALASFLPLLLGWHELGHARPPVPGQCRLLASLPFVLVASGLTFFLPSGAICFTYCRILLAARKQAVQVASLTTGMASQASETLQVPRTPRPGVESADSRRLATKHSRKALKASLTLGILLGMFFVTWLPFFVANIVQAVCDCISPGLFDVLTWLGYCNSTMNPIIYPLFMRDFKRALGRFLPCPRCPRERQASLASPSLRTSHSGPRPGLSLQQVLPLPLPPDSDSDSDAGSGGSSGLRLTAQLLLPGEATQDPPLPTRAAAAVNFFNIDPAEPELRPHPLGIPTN
In short: as §1

[7] = Receptor BZP Rat Brain Site, 10 μM

O=c1oc2ccccc2cc1-c1cn2cc(Cc3ccc(F)cc3)sc2n1 [UNC10302680A, iMDK]
Mean % ([1]; H3, mean inhibition): 41.02% | Inhibition 1 ([1]; H3, replicate 1): 20.04% | Inhibition 2 ([1]; H3, replicate 2): 32.28% | Inhibition 3 ([1]; H3, replicate 3): 47.14% | Inhibition 4 ([1]; H3, replicate 4): 64.63% | Mean % ([1]; H4, mean inhibition): 39.36% | Inhibition 1 ([1]; H4, replicate 1): 11.58% | Inhibition 2 ([1]; H4, replicate 2): 47.34% | Inhibition 3 ([1]; H4, replicate 3): 40.86% | Inhibition 4 ([1]; H4, replicate 4): 57.67% | Inhibition 1 ([1]; Receptor Alpha1A, 10 μM): -21.6% | Inhibition 2 ([1]; Receptor Alpha1A, 10 μM): -1.59% | Inhibition 3 ([1]; Receptor Alpha1A, 10 μM): -0.84% | Inhibition 4 ([1]; Receptor Alpha1A, 10 μM): -9.82% | Mean % ([1]; Receptor Alpha1A, 10 μM, mean of Inhibition 1-4): -8.46% | Inhibition 1 ([1]; Receptor Alpha2A, 10 μM): 9.97% | Inhibition 2 ([1]; Receptor Alpha2A, 10 μM): 11.68% | Inhibition 3 ([1]; Receptor Alpha2A, 10 μM): -0.74% | Inhibition 4 ([1]; Receptor Alpha2A, 10 μM): -29.15% | Mean % ([1]; Receptor Alpha2A, 10 μM, mean of Inhibition 1-4): -2.06% | Inhibition 1 ([1]; Receptor Alpha2C, 10 μM): 20.53% | Inhibition 2 ([1]; Receptor Alpha2C, 10 μM): 3.75% | Inhibition 3 ([1]; Receptor Alpha2C, 10 μM): 5.64% | Inhibition 4 ([1]; Receptor Alpha2C, 10 μM): 4% | Mean % ([1]; Receptor Alpha2C, 10 μM, mean of Inhibition 1-4): 8.48% | Inhibition 1 [1, 7]: -12.35% | Inhibition 2 [1, 7]: -8.18% | Inhibition 3 [1, 7]: -22.2% | Inhibition 4 [1, 7]: 3.1% | Mean % ([1]; Receptor BZP Rat Brain Site, 10 μM, mean of Inhibition 1-4): -9.91% | Inhibition 1 ([1]; Receptor DOR, 10 μM): -22.02% | Inhibition 2 ([1]; Receptor DOR, 10 μM): -14.61% | Inhibition 3 ([1]; Receptor DOR, 10 μM): -13.89% | Inhibition 4 ([1]; Receptor DOR, 10 μM): -8.29% | Mean % ([1]; Receptor DOR, 10 μM, mean of Inhibition 1-4): -14.7% | Inhibition 1 ([1]; Receptor Sigma 1, 10 μM): 7.22% | Inhibition 2 ([1]; Receptor Sigma 1, 10 μM): -7.42% | Inhibition 3 ([1]; Receptor Sigma 1, 10 μM): 1.64% | Inhibition 4 ([1]; Receptor Sigma 1, 10 μM): 5.36% | Mean % ([1]; Receptor Sigma 1, 10 μM, mean of Inhibition 1-4): 1.7% | Inhibition 1 ([1]; Receptor Sigma 2, 10 μM): 14.42% | Inhibition 2 ([1]; Receptor Sigma 2, 10 μM): 15.13% | Inhibition 3 ([1]; Receptor Sigma 2, 10 μM): 40.23% | Inhibition 4 ([1]; Receptor Sigma 2, 10 μM): 21.82% | Mean % ([1]; Receptor Sigma 2, 10 μM, mean of Inhibition 1-4): 22.9% | Inhibition 1 [2]: -9.94% | Inhibition 2 [2]: -4.88% | Inhibition 3 [2]: -6.5% | Inhibition 4 [2]: 11.95% | Mean % ([2]; mean of Inhibition 1-4): -2.34% | Inhibition 1 [3]: 4.02% | Inhibition 2 [3]: 16.88% | Inhibition 3 [3]: 25.61% | Inhibition 4 [3]: 10.91% | Mean % ([3]; mean of Inhibition 1-4): 14.36% | Inhibition 1 [4]: 9.1% | Inhibition 2 [4]: 60.54% | Inhibition 3 [4]: 10.14% | Inhibition 4 [4]: 13.11% | Mean % ([4]; mean of Inhibition 1-4): 23.22% | Inhibition 1 [5]: 5.77% | Inhibition 2 [5]: 4.57% | Inhibition 3 [5]: -6.98% | Inhibition 4 [5]: 3.71% | Mean % ([5]; mean of Inhibition 1-4): 1.77% | Inhibition 1 [6]: -5.99% | Inhibition 2 [6]: -28.7% | Inhibition 3 [6]: -13.62% | Inhibition 4 [6]: -18.86% | Mean % ([6]; mean of Inhibition 1-4): -16.79%
